Reference: patent publication US20050124494A1, “Compositions comprising a phosphonic compound, and acids as methods for plant growth and regulatory effects” (priority 2003, published 2005)

Test system: Cotton
Experiment: Defoliation of cotton by ethephon with and without muratic acid, field trial Bells TN October 2003
Assay type: in vivo
Settings: for Cotton LEAF DEFOLIATION 3 DA-A: rating date Oct. 13, 2003, 3 days after application; for Cotton LEAF DEFOLIATION 6 DA-A: rating date Oct. 16, 2003, 6 days after application
From the text: A preferred mixture would be […] 10%-20% and Phosphoric Acid 1%-40%. This formulation would then be mixed with water as a carrier and applied to the foliage of the target plant at a rate of 3 gallons/Acre to 30 gallons/Acre.

[1] = ethephon 16 FL OZ/A (muratic acid 4 % V/V where combined)
[2] = ethephon 32 FL OZ/A (muratic acid 4 % V/V where combined)

| SMILES | Cotton LEAF DEFOLIATION 3 DA-A [1] [%] | Cotton LEAF DEFOLIATION 6 DA-A [1] [%] | Cotton LEAF DEFOLIATION 3 DA-A [2] [%] | Cotton LEAF DEFOLIATION 6 DA-A [2] [%] | Effect of added acid on efficacy of ethephon and speed of the effect on cotton defoliation (summary in words of Table 1) |
| --- | --- | --- | --- | --- | --- |
| O=P(O)(O)CCCl [ETHEPHON, (2-chloroethyl)phosphonic acid] | 10.8 | 19.6 | 16.7 | 16.7 |  |
| Cl [Muratic Acid] |  |  |  |  | increased the efficacy of ethephon and the speed of the effect |
